From patent US9045563B2, “CXC chemokine receptor 4 (CXCR4) antagonistic polypeptide” (priority 2007, dated 2015)
Where two headings read alike, the source gives them in different places. Ends that are not written are not given here.

What was measured:
[1] = tested on: X4 tropic HIV-1 NL4-3; details: TZM-bl cells; for IC50: read-out: IC50 ± SEM, X4 tropic HIV-1 NL4-3, two days post infection, synthetic peptides
Method: HIV inhibition test were performed by seeding 4000 P4-R5 MAGI cells (P. Charneau et al., J. Mol. Biol. 241: 651, 1994) in 100 μl of DMEM (10% FCS, 100 U/ml penicillin G, and 100 μg/ml streptomycin sulfate). P4-R5 cells are stably transfected with an LTR-lacZ cassette and upon successful infection by HIV-1 will express—galactosidase in a Tat-dependent manner, which can be detected in a chemiluminescence test. On the following day, aliquots of the fractions were added. Therefor the lyophilized fractions were resuspended in 80 μl of DMEM, and 25 μl each thereof was pipetted to P4-R5 cells, incubated at 37° C. for 1 hour and subsequently infected with HIV-1 NL4—3 (1 ng of p24 antigen). Virus stocks were obtained by transient infection of 293T cells with proviral DNA by the calcium phosphate method (CalPhos™ Mammalian Transfection Kit, Clontech). Virus stocks were harvested 48 hours post transfection, filtrated and used for infection. Three days post infection, β-galactosidase activity in infected P4-R5 cells was detected using GalScreen assay (TROPIX) as recommended by the manufacturer. Briefly, supernatant was removed, 40 μl of a 1:1 dilution of PBS/GalScreen+substrate was added, followed by incubation at room temperature for 30 min. Then 30 μl of the lysates were transferred into 96 well lumiplates. Subsequently, the lumines-cence was detected as relative light units per second in a luminometer (Berthold, ORION). From all measurements, the mean β-galactosidase background activity of non-infected control cells was subtracted. % infection values for each infection were calculated relative to no peptide containing controls (100%). The enzyme activities in measurements without ALB408-423 were set at 100%, and all other values were based thereon. The final purification (7th step) was examined under exactly the same conditions in TZM-bl cells (X. Wei et al., Antimicrob. Agents Chemother. 46: 1896, 2002).
1.6 mg of fraction 31 from the 7th step in Example 1 was dissolved in 160 μl of DMEM. Subsequently, 10 μl of serial dilutions of fraction 31 containing ALB408-423 were added to 60 μl of TZM-bl cells (60 μl) and infected with 1 ng of p24 antigen HIV-1 NL4—3 in a total volume of 100 μl. Three days later, infection rates were determined in a GalScreen assay (see Example 1).
(§1) 5000 TZM-bl cells were seeded in 100 μl of DMEM (10% FCS, 100 U/ml of penicillin G and 100 μg/ml of streptomycin sulfate). ALB408-423 was dissolved in PBS (10 mg/ml). One day later, 20 μl serial dilutions of ALB408-423 in PBS were added to cells and cells were subsequently infected with 0.5 ng of p24 antigen HIV-1 in a total volume of 200 μl. HIV-1 molecular clones differing in coreceptor tropism were used and generated as described (Papkalla et al., J. Virol. 76: 8455-9, 2002).
Table 1. Antiviral activity of various ALB fragments against X4 tropic HIV-1 NL4-3 infection. TZM-bl cells containing serial dilutions of synthetic peptides were infected with HIV-1 NL4-3 and infection rates were determined and calculated as described in example 1 and 2 at two days post infection. IC50 values were determined using the GraphPad Prism software package.
Various ALB408-423 derivatives containing N or C terminal deletions or amino acid substitutions (Table 1) were chemically synthesized and lyophilized peptides were dissolved in PBS. The antiviral activity was analyzed in TZM-bl cells using X4 tropic HIV-1 NL4-3 as described (example 4).

[2] = tested on: dual tropic (CXCR4 and CCR5 using) variant 92ht593.1; assay: Infection of TZM-bl cells by dual tropic HIV-1, GalScreen; type: cell-based; details: 100 μM peptide
Method: as §1
(§2) FIG. 3: Chemically synthesized ALB408-423 specifically blocks X4 tropic HIV-1 infection. TZM-bl cells containing indicated dilutions of peptide were infected with HIV-1 variants differing in their coreceptor tropism. 3 days later Gal Screen assay was used to measure infection rates. […] B) Infection rates in the presence of 500 μg/ml ALB408-423 showing that the peptide specifically blocks X4 but not R5 tropic HIV-1 infection. Data shown are mean values±standard deviation derived from triplicate infections relative to PBS containing cells (100% infection).
(§3) After 3 days, infection was detected using GalScreen assay (TROPIX) (example 1). […] In contrast, CCR5 tropic HIV-1 variants were not inhibited even in the presence of very high doses of ALB408-423 (500 μg/ml) (FIG. 3B). Due to the specific inhibition of the infection caused by X4-tropic HIV-1 variants, it is to be assumed that ALB408-423 interacts with the chemokine receptor CXCR4.
(§4) Virus stocks were first titrated on TZM-bl cells. Then TZM-bl cells containing 100 μM of peptides were infected with infectivity normalized amounts of X4, dualtropic (X4/R5) or R5 tropic HIV-1.
(§5) FIG. 10. ALB408-423 and truncated ALB derivatives specifically block X4 tropic HIV-1 infection. TZM-bl cells either containing PBS or 100 μM of indicated peptides were infected with normalized infectivities of X4, dualtropic or R5 tropic HIV-1 clones. Infection rates were measured 2 days post infection using the GalScreen assay. Shown are mean values (% of PBS treated control)±standard deviations derived from triplicate measurements.

[3] = tested on: X4 tropic HIV-1 variants NL4-3, P51-Sc, P59-S/27 and P34-S; details: TZM-bl cells, 100 μM peptide
Method: as §1, §2, §3, §4, §5

[4] = tested on: X4 tropic HIV-1 NL4-3; assay: X4 tropic HIV-1 infection and replication in PBMC, p24 antigen ELISA; type: cell-based; details: 100 μM peptide, day 6 post infection
Method: To analyze the effect of ALB408-423 and derivatives thereof in relevant primary cells, peripheral blood mononuclear cells were isolated from Buffy coat derived from the DRK-Blutspendedienst Baden-Württemberg-Hessen using Ficoll density centrifugation. 1×10^6 PBMC per ml were stimulated with 1 μg/ml phytohemagglutinine (PHA, Oxoid, #3085280) and 10 ng/ml Interleukin 2 (IL-2, Strathmann, #9511192) for three days. Thereafter cells were pelleted and resuspended in IL-2 containing medium. 1.5×10^5 PBMC (250 μl) were seeded in 96 well dishes, peptides were added and cells were infected with […] p24 antigen of X4 tropic HIV-1 NL4-3. Supernatants containing progeny virus were taken at day 1, 3 and 6 post infection. Virus production was measured by p24 antigen ELISA (SAIC-Frederick, Inc [AIDS & Cancer virus program]). […] In the presence of 20 μM peptides virus replication was severely impaired.
FIG. 11. ALB408-423 and derivatives inhibit X4 tropic HIV-1 infection of peripheral blood mononuclear cells (PBMC). Cells were incubated with indicated concentrations of ALB408-423 or truncated variants and infected with X4 tropic HIV-1. Supernatants obtained after 6 days were analyzed by p24 ELISA. Shown are mean p24 antigen values (ng/ml) derived from triplicate infections±standard deviation.

[5] = tested on: CCR5 tropic HIV-1 variants; assay: Infection of TZM-bl cells by R5 tropic HIV-1 variants, GalScreen; type: cell-based; details: 100 μM peptide
Method: as §1, §2, §3, §4, §5

[6] = biological target: T1, CXCR4 (Homo sapiens, UniProt P61073); assay: Fluorescent binding assay on whole living cells, CXCL12-TR competition on HEK293 EGFP-hCXCR4; set-up: expressed in transfected cells
T1 sequence (P61073 whole entry): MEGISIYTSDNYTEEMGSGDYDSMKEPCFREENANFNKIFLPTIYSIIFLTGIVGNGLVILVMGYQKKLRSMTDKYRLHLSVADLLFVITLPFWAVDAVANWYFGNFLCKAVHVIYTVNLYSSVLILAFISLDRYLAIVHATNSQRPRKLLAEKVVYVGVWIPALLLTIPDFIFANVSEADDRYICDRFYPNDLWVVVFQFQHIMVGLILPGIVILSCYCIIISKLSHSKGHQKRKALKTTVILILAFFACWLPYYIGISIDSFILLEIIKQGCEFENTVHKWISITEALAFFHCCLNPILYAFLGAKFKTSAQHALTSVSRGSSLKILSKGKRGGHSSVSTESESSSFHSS
Method: FIG. 17. CXCR4 antagonistic activities of ALB derivatives. […] CXCR4 or CCR5 expressing HEK293 cells were treated with CXCR4 agonist CXCL12 (10 nM) or CCR5 agonist CCL5 (20 nM), respectively, in the absence (no ALB) or presence of indicated ALB derivatives (50 μM). Calcium responses were recorded as described. Data shown are mean values±standard deviation derived from duplicates relative to peak calcium responses after treatment with agonists only (100%). […] CXCR4 expressing HEK293 cells were treated with Texas Red labeled CXCL12 (CXCL12-Tr) in the presence or absence of ALB peptides. Real-time fluorescence monitoring of ligand-receptor interactions was carried out as described.

[7] = biological target: T1, CXCR4; set-up: expressed in transfected cells; details: read-out: dissociation constant of fluorescent CXCL12 for the CXCR4 receptor; cited from earlier work

Row | Substance | antiviral activity against X4 tropic HIV-1 NL4-3 (words, SAR study) [1] | IC50 [1] | other results
1 | ALB408-416: SEQ ID No 15; C terminal truncation of ALB408-423, sequence not printed in Table 1 (LVRYTKKVP; listed as Homo sapiens) | remained active |  | 
2 | AVRYTKKVPQVS [ALB408A-419, AVRYTKKVPQVS] | inactive peptides |  | 
3 | FVRYTKKVPQVS [ALB408F-419, FVRYTKKVPQVS] | inactive peptides |  | 
4 | GVRYTKKVPQVS [ALB408G-419, GVRYTKKVPQVS] | inactive peptides |  | 
5 | IVRYTKKVPQVS [ALB408I-419] |  | 1.55 ± 1.2 µM | inhibition of dualtropic HIV-1 clone 92ht593.1 [2]: only moderately; block of infection by X4 tropic HIV-1 clones (NL4-3, P51-Sc, P34-s) [3]: almost completely; p24 antigen in supernatants [4]: No p24 antigen could be detected; effect on R5 tropic HIV-1 infection [5]: no effect
6 | KKVPQVSTPTL [ALB413-423, KKVPQVSTPTL] | severely impaired or abrogated antiviral activity | > 100 µM | 
7 | KVPQVSTPTL [ALB414-423, KVPQVSTPTL] | severely impaired or abrogated antiviral activity |  | 
8 | LARYTKKV [ALB-V409A, LARYTKKV] |  | 32.9 µM | 
9 | LLVRYTKKVPQVS [ALB407-419, LLVRYTKKVPQVS] | reduced its antiviral activity |  | 
10 | LVAYTKKV [ALB-R410A, LVAYTKKV] |  | > 1000 µM | 
11 | LVRATKKV [ALB-Y411A, LVRATKKV] |  | 91 µM | 
12 | LVRYAKKV [ALB-T412A, LVRYAKKV] |  | 11.2 ± 0.1 µM | inhibition of dualtropic HIV-1 clone 92ht593.1 [2]: only moderately; block of infection by X4 tropic HIV-1 clones (NL4-3, P51-Sc, P34-s) [3]: almost completely; effect on R5 tropic HIV-1 infection [5]: no effect
13 | LVRYTAKV [ALB-K413A, LVRYTAKV] |  | 56 µM | 
14 | LVRYTK [ALB408-413, LVRYTK] |  | > 50 µM | Kd [6]: > 200 µM
15 | LVRYTKAV [ALB-K414A, LVRYTKAV] |  | 31 µM | 
16 | LVRYTKK [ALB408-414, LVRYTKK] | remained active |  | 
17 | LVRYTKKA [ALB-V415A, LVRYTKKA] |  | 33 µM | 
18 | LVRYTKKV [ALB408-415, LVRYTKKV] | remained active | 17.4 ± 6.5 µM | 
19 | LVRYTKKVPQ [ALB408-417, LVRYTKKVPQ] | remained active | 19.9 ± 4.1 µM | 
20 | LVRYTKKVPQV [ALB408-418, LVRYTKKVPQV] | remained active |  | 
21 | LVRYTKKVPQVS [ALB408-419, LVRYTKKVPQVS] | remained active | 4.4 ± 1 µM | inhibition of dualtropic HIV-1 clone 92ht593.1 [2]: only moderately; block of infection by X4 tropic HIV-1 clones (NL4-3, P51-Sc, P34-s) [3]: almost completely; p24 antigen in supernatants [4]: only marginal p24 levels; effect on R5 tropic HIV-1 infection [5]: no effect
22 | LVRYTKKVPQVST [ALB408-420, LVRYTKKVPQVST] | remained active |  | 
23 | LVRYTKKVPQVSTP [ALB408-421, LVRYTKKVPQVSTP] | remained active |  | 
24 | LVRYTKKVPQVSTPT [ALB408-422, LVRYTKKVPQVSTPT] | remained active |  | 
25 | RYTKKVPQVSTPTL [ALB410-423, RYTKKVPQVSTPTL] | severely impaired or abrogated antiviral activity | > 100 µM | 
26 | TKKVPQVSTPTL [ALB412-423, TKKVPQVSTPTL] | severely impaired or abrogated antiviral activity | > 100 µM | 
27 | VPQVSTPTL [ALB415-423, VPQVSTPTL] | severely impaired or abrogated antiviral activity | > 100 µM | 
28 | YTKKVPQVSTPTL [ALB411-423, YTKKVPQVSTPTL] | severely impaired or abrogated antiviral activity |  | 
29 | fluorescent CXCL12: synthesized human chemokine CXCL12 labeled with Texas Red, fluorescent CXCR4 ligand |  |  | Kd [7]: 0.055 ± 0.015 µM
